Data on 21 compounds can be found in PubChem BioAssay (NCI).

SMILES strings stand for the structures. Values joined by “and” are separate entries in the source; they are usually repeats but may differ in a detail not shown here. Identical values can stand only once.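 These data come from cells grown in 96-well plates and exposed to compound for 48 hours at five concentrations. GI50: concentration for 50% inhibition of growth. Definition used: TGI = concentration required for complete inhibition of growth.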

Test systems include IGROV1 ovarian; SR leukemia; K-562 leukemia; SK-MEL-5 melanoma; HOP-62 NSCLC; U251 CNS; SN12C renal; HCT-116 colon; PC-3 prostate; HS 578T breast.
Assay in all cases: NCI anticancer screen, dose series, 48 h

Regarding `COc1cccc(-c2cc(C(=O)Nc3ccc(Cl)cc3)nc(N)n2)c1`, the TGI in the assay with IGROV1 ovarian, with SR leukemia, with K-562 leukemia, in the assay with SK-MEL-5 melanoma, with HOP-62 NSCLC and in the assay with U251 CNS was more than 100 µM in each case. For the same compound, the TGI in the assay on SN12C renal and in the assay with HCT-116 colon was more than 100 µM throughout.
For `C[C@]12CC/C(=N\O)C[C@@H]1CC[C@@H]1[C@@H]2CC[C@]2(C)/C(=N/O)CC[C@@H]12`, the GI50 was 17.4 µM with IGROV1 ovarian; 35 µM in the assay with SR leukemia; 40.9 µM in the assay with K-562 leukemia; 23.6 µM in the assay on SK-MEL-5 melanoma; 43.7 µM with PC-3 prostate; 35.2 µM in the assay with U251 CNS. In addition, the GI50 in the assay with SN12C renal is 47.1 µM; with HCT-116 colon, 23.3 µM. Further, the TGI with IGROV1 ovarian was 62.6 µM; with SR leukemia it was more than 100 µM; with K-562 leukemia it was more than 100 µM; with SK-MEL-5 melanoma, 53.9 µM; in the assay on PC-3 prostate it was more than 100 µM; in the assay on U251 CNS, more than 100 µM. The TGI in the assay on SN12C renal was more than 100 µM; with HCT-116 colon it was 58.5 µM.
Consider `COc1cc(-c2nn(-c3ccc(NC(=O)Nc4ccc(Cl)c(C(F)(F)F)c4)cc3)cc2-c2ccncc2)ccc1Cl`, for which the GI50 is 2.06 µM with IGROV1 ovarian; 1.91 µM in the assay with HS 578T breast; 1.59 µM in the assay with K-562 leukemia; 1.56 µM with SK-MEL-5 melanoma; 1.9 µM in the assay on HOP-62 NSCLC; 1.67 µM in the assay with PC-3 prostate. In addition, the results for the GI50 in the assay on U251 CNS, in the assay on SN12C renal and in the assay on HCT-116 colon were 1.21 µM, 2.6 µM and 1.14 µM, respectively. Further, the TGI in the assay with IGROV1 ovarian was 6.07 µM; in the assay on HS 578T breast it was 4.96 µM; in the assay with K-562 leukemia it was 5.58 µM; with SK-MEL-5 melanoma, 2.94 µM; in the assay on HOP-62 NSCLC it was 3.93 µM; in the assay on PC-3 prostate, more than 100 µM. Besides, the TGI is 2.62 µM with U251 CNS, 8.82 µM in the assay on SN12C renal and 2.53 µM in the assay with HCT-116 colon.
Turning to `CN(C)C(=O)C(NCCO)c1ccccc1` (centres undefined), the TGI in the assay on IGROV1 ovarian, with HS 578T breast, with SK-MEL-5 melanoma, in the assay on HOP-62 NSCLC, in the assay with PC-3 prostate and in the assay with U251 CNS was more than 100 µM in each case. Besides, the TGI in the assay with SN12C renal and with HCT-116 colon was more than 100 µM each time.
For the compound `N#CC1=C(c2ccccc2)NN(Cc2ccccc2)C(c2ccc(Cl)cc2)CC1=O` (centres undefined), the TGI is more than 100 µM with SR leukemia, more than 100 µM with SK-MEL-5 melanoma, 38.2 µM in the assay with U251 CNS and 48.5 µM in the assay on HCT-116 colon.
Regarding `CC1OC(OC23C(=O)CC(C)(O)CC2(O)C=CC2=C3C(=O)c3ccc(C4CC(OC5CCC(OC6CC(O)C(O)C(C)O6)C(C)O5)C(O)C(C)O4)c(O)c3C2=O)CCC1O` (centres undefined), the TGI with IGROV1 ovarian is 30.6 µM and 30.1 µM; in the assay with SR leukemia, more than 100 µM; in the assay on K-562 leukemia, more than 100 µM; in the assay with SK-MEL-5 melanoma, 33.3 µM and 29.7 µM; in the assay with HOP-62 NSCLC, 79.4 µM and 41.4 µM; in the assay on U251 CNS it was 29.5 µM and 30.8 µM. Further, the TGI with SN12C renal is 32.5 µM and 30.1 µM; in the assay on HCT-116 colon, 28.5 µM and 18.6 µM. Besides, in the assay with HCT-116 colon, the GI50 was 15.1 µM and 5.78 µM.
In the case of `COC(=O)c1ccc(CS(=O)(=O)c2ccccc2)cc1`, the TGI in the assay with IGROV1 ovarian, in the assay on SR leukemia, in the assay on K-562 leukemia, in the assay with SK-MEL-5 melanoma, with HOP-62 NSCLC and in the assay on U251 CNS was more than 100 µM throughout. Besides, the TGI in the assay on SN12C renal and with HCT-116 colon was more than 100 µM in each case.
Turning to `CC(C)(C)n1nc(C2CC2)cc1NC(=O)Nc1ccc(Cl)cc1`, the TGI with IGROV1 ovarian, in the assay with HS 578T breast, in the assay with K-562 leukemia, in the assay on SK-MEL-5 melanoma, in the assay on HOP-62 NSCLC and in the assay on PC-3 prostate was more than 100 µM throughout. The TGI with U251 CNS, in the assay with SN12C renal and with HCT-116 colon was more than 100 µM in each case.
As to `O=c1/c(=C/c2ccccc2O)sc2nc3ccccc3n12`, the TGI is 85.1 µM in the assay on IGROV1 ovarian; 61.3 µM with SR leukemia; 99.5 µM in the assay on K-562 leukemia; more than 100 µM with SK-MEL-5 melanoma; more than 100 µM in the assay with SN12C renal; more than 100 µM with HCT-116 colon.
For `Nc1nc2ccccc2c2[nH]c3ccccc3c12`, the GI50 was 0.806 µM in the assay on IGROV1 ovarian; 0.64 µM in the assay with SR leukemia; 1.64 µM in the assay with SK-MEL-5 melanoma; 1.13 µM with HOP-62 NSCLC; 1.2 µM in the assay with U251 CNS; 1.24 µM with SN12C renal. Also, the GI50 in the assay on HCT-116 colon was 0.499 µM. Further, the TGI with IGROV1 ovarian is 2.42 µM; in the assay on SR leukemia it was 4.8 µM; in the assay on SK-MEL-5 melanoma, 3.01 µM; in the assay with HOP-62 NSCLC, 2.44 µM; with U251 CNS, 2.43 µM; in the assay on SN12C renal it was 2.97 µM. In the assay on HCT-116 colon, this compound had a TGI of 1.83 µM.
Take `CC1=CC[C@@H]2[C@@H](CC[C@@]2(C)O)C(C)(C)[C@H]1CC[C@@H]1[C@@]2(C)CC[C@@H](O)C(C)(C)O[C@@H]2CC[C@]1(C)O`: the TGI was 42.8 µM with SR leukemia; more than 100 µM with K-562 leukemia; 27.8 µM in the assay on SK-MEL-5 melanoma; 75.4 µM in the assay with HOP-62 NSCLC; more than 100 µM in the assay with PC-3 prostate; 39.8 µM in the assay on U251 CNS. For the same compound, the TGI in the assay on SN12C renal was 57.2 µM; with HCT-116 colon, 27 µM.
Turning to `C[C@@]1([C@H](OC(=O)c2cccc3ccccc23)C(N)=O)CO1`, the GI50 was 0.779 µM in the assay on IGROV1 ovarian; 3.59 µM in the assay on HS 578T breast; 1.13 µM in the assay on K-562 leukemia; 2.01 µM with SK-MEL-5 melanoma; 0.978 µM in the assay with HOP-62 NSCLC; 3.2 µM in the assay on PC-3 prostate. Also, the GI50 in the assay on U251 CNS is 0.997 µM; with SN12C renal it was 0.36 µM; in the assay with HCT-116 colon it was 0.368 µM. In addition, the TGI in the assay on IGROV1 ovarian was 3.75 µM; with HS 578T breast, more than 24.6 µM; with K-562 leukemia, more than 37.5 µM; in the assay with SK-MEL-5 melanoma it was 5.75 µM; with HOP-62 NSCLC, 7.29 µM; in the assay on PC-3 prostate, 22.8 µM. The results for the TGI with U251 CNS, in the assay with SN12C renal and in the assay on HCT-116 colon were 7.89 µM, 3.95 µM and 8.43 µM, respectively.
In the case of `COc1ccc(C(=C(C#N)C#N)c2ccc(OC)cc2)cc1`, the TGI in the assay with IGROV1 ovarian, in the assay with SR leukemia, with K-562 leukemia, in the assay with HOP-62 NSCLC, in the assay with U251 CNS and in the assay with SN12C renal was more than 100 µM in each case. The compound also came in with a TGI in the assay with HCT-116 colon of more than 100 µM.
As for `CCOC(=O)NC(=O)c1cn(CC(=O)NCC(=O)NCC(=O)N2CCN(CCn3c(C)nc(C(N)=O)c3N)CC2)c(=O)[nH]c1=O`, the TGI with IGROV1 ovarian, in the assay on SR leukemia, in the assay on K-562 leukemia, with SK-MEL-5 melanoma, with HOP-62 NSCLC and in the assay on U251 CNS was more than 100 µM throughout. The TGI with SN12C renal and with HCT-116 colon was more than 100 µM in each case.
In the case of `CO[C@H](C(=O)O[C@H]1C(=O)N2CCC3CCC1C32C)c1ccccc1` (some centres undefined), the TGI with IGROV1 ovarian, with SR leukemia, with K-562 leukemia, in the assay with SK-MEL-5 melanoma, in the assay with HOP-62 NSCLC and in the assay with U251 CNS was more than 100 µM in each case. Further, the TGI in the assay on SN12C renal and in the assay on HCT-116 colon was more than 100 µM in each case.
In the case of `O=C(/C=C/c1ccc[nH]1)c1ccccc1`, the TGI in the assay with SR leukemia, in the assay on K-562 leukemia, in the assay on SK-MEL-5 melanoma, with HOP-62 NSCLC, in the assay with U251 CNS and with SN12C renal was more than 100 µM throughout. Also, in the assay on HCT-116 colon, the TGI was more than 100 µM.
With `O=C1C2c3[nH]c4ccccc4c3C3CCC(c4ccccc4)CC3C2C(=O)N1c1ccccc1` (centres undefined), the TGI with IGROV1 ovarian, in the assay with SR leukemia, in the assay on K-562 leukemia, in the assay with SK-MEL-5 melanoma, in the assay with U251 CNS and with SN12C renal was more than 100 µM in each case.
`OCC(O)C(O)C(O)c1nn[nH]n1` (centres undefined): the TGI in the assay on IGROV1 ovarian, in the assay with SR leukemia, in the assay with K-562 leukemia, with SK-MEL-5 melanoma, in the assay on HOP-62 NSCLC and in the assay with U251 CNS was more than 100 µM each time. The TGI with SN12C renal and in the assay on HCT-116 colon was more than 100 µM in each case.
Consider `NC(N)=NS(=O)(=O)c1ccc(NC(=O)c2cccn3c(=O)c4ccccc4nc23)cc1`, for which the TGI with IGROV1 ovarian is more than 100 µM; in the assay on SR leukemia, 84.3 µM; in the assay on K-562 leukemia it was 90.1 µM; in the assay with SK-MEL-5 melanoma it was more than 100 µM; in the assay with HOP-62 NSCLC, more than 100 µM; in the assay on U251 CNS it was more than 100 µM. Also, the TGI in the assay on SN12C renal and in the assay on HCT-116 colon was more than 100 µM throughout.
On to `CC12CCC(=O)N1c1cc([N+](=O)[O-])ccc1N2` (centres undefined), for which the TGI in the assay with IGROV1 ovarian, in the assay on SR leukemia, in the assay with K-562 leukemia, in the assay with SK-MEL-5 melanoma, in the assay on HOP-62 NSCLC and in the assay with U251 CNS was more than 100 µM throughout. Besides, the TGI with SN12C renal and in the assay on HCT-116 colon was more than 100 µM in each case.
With `C=C(c1ccccc1)[C@@]1(O)CCCC[C@H]1NC(c1ccccc1)c1ccccc1`, the TGI turned out to be 42.4 µM in the assay with IGROV1 ovarian; 6.98 µM in the assay with SR leukemia; 29.1 µM with K-562 leukemia; 22.8 µM with SK-MEL-5 melanoma; 31 µM in the assay with HOP-62 NSCLC; 24.5 µM in the assay on U251 CNS. Moreover, the figures for the TGI in the assay on SN12C renal and in the assay with HCT-116 colon were 29 µM and 20.5 µM, respectively.
